In article PMC7905942 (ACS Omega, 2021):

Experiments:
[1] = system: SW620 (colon cancer) cells; experiment: SRB cytotoxicity assay, SW620; assay type: cell-based; conditions: Homo sapiens, SW-620, 48 h, read-out: Cytotoxicity IC50, SW620
[2] = system: NCI-H23 (lung cancer) cells; experiment: SRB cytotoxicity assay, NCI-H23; assay type: cell-based; conditions: Homo sapiens, NCI-H23, 48 h, read-out: Cytotoxicity IC50, NCI-H23
[3] = system: PC3 (prostate cancer) cells; experiment: SRB cytotoxicity assay, PC3; assay type: cell-based; conditions: Homo sapiens, 48 h, read-out: Cytotoxicity IC50, PC3
[4] = system: SW620 human colon cancer cells; experiment: Cell cycle analysis by flow cytometry; assay type: cell-based; conditions: compounds 10 μM, SAHA 1 μM, 24 h, vehicle 6.29%
[5] = system: HDAC (Hela cell nuclear extract); assay type: biochemical; conditions: for fold more potent than SAHA: HDAC inhibitory activity and cytotoxicity together; for fold higher HDAC IC50 than that of SAHA: Hela cell nuclear extract
[6] = system: SW620 human colon cancer cells; experiment: Annexin V-FITC/PI dual staining apoptosis assay; assay type: cell-based; conditions: 10 μM, 24 h
[7] = biological target: T1, HDAC6 (Homo sapiens, UniProt Q9UBN7); experiment: HDAC6 enzyme assay; assay type: biochemical
T1 sequence (Q9UBN7 1-1215): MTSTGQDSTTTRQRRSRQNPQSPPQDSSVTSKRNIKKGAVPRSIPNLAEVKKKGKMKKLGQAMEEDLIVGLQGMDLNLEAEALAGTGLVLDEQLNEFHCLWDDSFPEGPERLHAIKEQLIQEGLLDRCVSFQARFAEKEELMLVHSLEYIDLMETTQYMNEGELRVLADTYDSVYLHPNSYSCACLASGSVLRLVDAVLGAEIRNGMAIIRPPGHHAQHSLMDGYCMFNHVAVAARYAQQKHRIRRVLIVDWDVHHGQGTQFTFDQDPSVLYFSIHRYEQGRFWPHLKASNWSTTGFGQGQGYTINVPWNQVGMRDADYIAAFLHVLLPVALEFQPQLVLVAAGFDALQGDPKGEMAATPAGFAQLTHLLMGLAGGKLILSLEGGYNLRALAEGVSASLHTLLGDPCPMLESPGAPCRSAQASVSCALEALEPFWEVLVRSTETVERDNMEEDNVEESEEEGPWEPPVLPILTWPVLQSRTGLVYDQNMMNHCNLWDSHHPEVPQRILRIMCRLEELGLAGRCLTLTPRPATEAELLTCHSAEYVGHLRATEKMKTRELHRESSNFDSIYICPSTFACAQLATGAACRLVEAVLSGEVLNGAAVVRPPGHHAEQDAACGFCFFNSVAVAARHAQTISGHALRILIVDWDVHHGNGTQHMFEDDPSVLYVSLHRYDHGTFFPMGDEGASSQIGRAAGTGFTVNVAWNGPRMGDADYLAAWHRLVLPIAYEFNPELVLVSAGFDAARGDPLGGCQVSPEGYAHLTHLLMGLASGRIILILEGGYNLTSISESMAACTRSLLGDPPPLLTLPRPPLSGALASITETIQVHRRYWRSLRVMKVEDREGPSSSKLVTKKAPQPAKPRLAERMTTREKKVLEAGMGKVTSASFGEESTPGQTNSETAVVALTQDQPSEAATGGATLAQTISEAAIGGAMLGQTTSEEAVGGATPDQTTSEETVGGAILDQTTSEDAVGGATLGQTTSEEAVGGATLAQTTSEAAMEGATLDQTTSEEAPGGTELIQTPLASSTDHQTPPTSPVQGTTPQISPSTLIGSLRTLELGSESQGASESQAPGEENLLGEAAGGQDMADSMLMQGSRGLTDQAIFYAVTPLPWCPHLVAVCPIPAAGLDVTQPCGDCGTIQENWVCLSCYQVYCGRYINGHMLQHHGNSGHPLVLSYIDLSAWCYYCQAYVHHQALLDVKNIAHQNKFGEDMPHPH

[8] = system: SW620, PC3 and NCI-H23 cancer cell lines; experiment: SRB cytotoxicity, range over three human cancer cell lines; assay type: cell-based; conditions: read-out: Cytotoxicity IC50 values (range over cell lines)

IC50 [7] | Compound | IC50 [1] | IC50 [2] | IC50 [3] | other results
– | O=C(/C=C/c1ccc2ncn(Cc3cccc(F)c3)c(=O)c2c1)NO [Compound 9j, (E)-3-(3-(3-Fluorobenzyl)-4-oxo-3,4-dihydroquinazolin-6-yl)-N-hydroxyacrylamide] | 2.06 ± 0.058 µM | 1.669 ± 0.005 µM | 1.28 ± 0.013 µM | –
0.047 ± 0.001 µM | Cc1ccc(Cn2cnc3cc(/C=C/C(=O)NO)ccc3c2=O)cc1 [Compound 10m, (E)-N-Hydroxy-3-(3-(4-methylbenzyl)-4-oxo-3,4-dihydroquinazolin-7-yl)acrylamide] | 0.898 ± 0.047 µM | 0.769 ± 0.009 µM | 1.21 ± 0.05 µM | cells in G2/M phase [4]: 30.11%; fold more potent than SAHA [5]: 2- to 3 fold; induction of apoptosis (in words) [6]: substantially induced both early and late apoptosis; IC50 [8]: 0.671 to 1.21 µM
0.022 µM | O=C(/C=C/c1ccc2c(=O)n(CC3CCCC3)cnc2c1)NO [Compound 10f, (E)-3-(3-(Cyclopentylmethyl)-4-oxo-3,4-dihydroquinazolin-7-yl)-N-hydroxyacrylamide] | 3.21 ± 0.083 µM | 3.16 ± 0.213 µM | – | –
0.048 ± 0.002 µM | CCCn1cnc2cc(/C=C/C(=O)NO)ccc2c1=O [Compound 10d, (E)-N-Hydroxy-3-(4-oxo-3-propyl-3,4-dihydroquinazolin-7-yl)acrylamide] | – | 1.9 ± 0.053 µM | 1.5 ± 0.135 µM | –
– | O=C(/C=C/c1ccc2ncn(Cc3ccccc3F)c(=O)c2c1)NO [Compound 9i, (E)-3-(3-(2-Fluorobenzyl)-4-oxo-3,4-dihydroquinazolin-6-yl)-N-hydroxyacrylamide] | – | 0.659 ± 0.02 µM | – | IC50 [8]: 0.639 to 1.12 µM
– | O=C(/C=C/c1ccc2ncn(CC3CCCCC3)c(=O)c2c1)NO [Compound 9g, (E)-3-(3-(Cyclohexylmethyl)-4-oxo-3,4-dihydroquinazolin-6-yl)-N-hydroxyacrylamide] | – | 1.291 ± 0.003 µM | 0.997 ± 0.018 µM | –
– | Cc1ccc(Cn2cnc3ccc(/C=C/C(=O)NO)cc3c2=O)cc1 [Compound 9m, (E)-N-Hydroxy-3-(3-(4-methylbenzyl)-4-oxo-3,4-dihydroquinazolin-6-yl)acrylamide] | – | 1.38 ± 0.03 µM | 1.27 ± 0.026 µM | –
0.322 ± 0.013 µM | O=C(/C=C/c1ccc2c(=O)n(CCCl)cnc2c1)NO [Compound 10b, (E)-3-(3-(2-Chloroethyl)-4-oxo-3,4-dihydroquinazolin-7-yl)-N-hydroxyacrylamide] | – | 7.66 ± 0.691 µM | 5.55 ± 0.231 µM | –
0.042 ± 0.001 µM | O=C(/C=C/c1ccc2c(=O)n(Cc3ccc(F)cc3)cnc2c1)NO [Compound 10k, (E)-3-(3-(4-Fluorobenzyl)-4-oxo-3,4-dihydroquinazolin-7-yl)-N-hydroxyacrylamide] | – | 1.49 ± 0.018 µM | 1.49 ± 0.023 µM | –
– | O=C(/C=C/c1ccc2ncn(CC3CCCC3)c(=O)c2c1)NO [Compound 9f, (E)-3-(3-(Cyclopentylmethyl)-4-oxo-3,4-dihydroquinazolin-6-yl)-N-hydroxyacrylamide] | – | 0.952 ± 0.029 µM | 1.22 ± 0.1 µM | –
– | CCCCn1cnc2ccc(/C=C/C(=O)NO)cc2c1=O [Compound 9e, (E)-3-(3-Butyl-4-oxo-3,4-dihydroquinazolin-6-yl)-N-hydroxyacrylamide] | 1.96 ± 0.103 µM | 1.45 ± 0.015 µM | 1.689 ± 0.014 µM | –
0.033 µM | O=C(/C=C/c1ccc2c(=O)n(Cc3ccc(Cl)cc3)cnc2c1)NO [Compound 10l, (E)-3-(3-(4-Chlorobenzyl)-4-oxo-3,4-dihydroquinazolin-7-yl)-N-hydroxyacrylamide] | – | 0.899 ± 0.045 µM | 0.767 ± 0.025 µM | cells in G2/M phase [4]: 26.70%; fold more potent than SAHA [5]: 2- to 3 fold; induction of apoptosis (in words) [6]: substantially induced both early and late apoptosis; IC50 [8]: 0.671 to 1.21 µM
0.08 µM | CCn1cnc2cc(/C=C/C(=O)NO)ccc2c1=O [Compound 10a, (E)-3-(3-Ethyl-4-oxo-3,4-dihydroquinazolin-7-yl)-N-hydroxyacrylamide] | – | 2.35 ± 0.056 µM | 1.681 ± 0.008 µM | –
0.029 µM | CCCCn1cnc2cc(/C=C/C(=O)NO)ccc2c1=O [Compound 10e, (E)-3-(3-Butyl-4-oxo-3,4-dihydroquinazolin-7-yl)-N-hydroxyacrylamide] | 3.685 ± 0.027 µM | 2.749 ± 0.016 µM | 2.85 ± 0.094 µM | –
– | O=C(/C=C/c1ccc2ncn(Cc3ccc(Cl)cc3)c(=O)c2c1)NO [Compound 9l, (E)-3-(3-(4-Chlorobenzyl)-4-oxo-3,4-dihydroquinazolin-6-yl)-N-hydroxyacrylamide] | – | 1.66 ± 0.028 µM | 1.37 ± 0.03 µM | –
– | O=C(/C=C/c1ccc2ncn(CCCl)c(=O)c2c1)NO [Compound 9b, (E)-3-(3-(2-Chloroethyl)-4-oxo-3,4-dihydroquinazolin-6-yl)-N-hydroxyacrylamide] | 4.04 ± 0.053 µM | – | 3.97 ± 0.391 µM | fold higher HDAC IC50 than that of SAHA [5]: ~20 fold; IC50 [8]: 3.2 to 7.04 µM
– | O=C(/C=C/c1ccc2c(=O)n(CC3CCCCC3)cnc2c1)NO [Compound 10g, (E)-3-(3-(Cyclohexylmethyl)-4-oxo-3,4-dihydroquinazolin-7-yl)-N-hydroxyacrylamide] | – | – | 2.54 ± 0.026 µM | fold lower HDAC6 IC50 than IC50 in Hela nuclear extract assay ([7]; HDAC6 vs total HDAC extract): 10 fold
– | O=C(/C=C/c1ccc2ncn(Cc3ccc(F)cc3)c(=O)c2c1)NO [Compound 9k, (E)-3-(3-(4-Fluorobenzyl)-4-oxo-3,4-dihydroquinazolin-6-yl)-N-hydroxyacrylamide] | 1.9 ± 0.055 µM | 1.37 ± 0.072 µM | 1.04 ± 0.013 µM | –
0.023 µM | O=C(/C=C/c1ccc2c(=O)n(Cc3cccc(F)c3)cnc2c1)NO [Compound 10j, (E)-3-(3-(3-Fluorobenzyl)-4-oxo-3,4-dihydroquinazolin-7-yl)-N-hydroxyacrylamide] | – | 1.914 ± 0.006 µM | 1.396 ± 0.009 µM | –
– | O=C(/C=C/c1ccc2ncn(CCO)c(=O)c2c1)NO [Compound 9c, (E)-N-Hydroxy-3-(3-(2-hydroxyethyl)-4-oxo-3,4-dihydroquinazolin-6-yl)acrylamide] | 3.67 ± 0.067 µM | 4.309 ± 0.04 µM | 4.65 ± 0.171 µM | –
– | CCCn1cnc2ccc(/C=C/C(=O)NO)cc2c1=O [Compound 9d, (E)-N-Hydroxy-3-(4-oxo-3-propyl-3,4-dihydroquinazolin-6-yl)acrylamide] | – | 1.61 ± 0.074 µM | 2.87 ± 0.224 µM | –
0.04 ± 0.001 µM | O=C(/C=C/c1ccc2c(=O)n(Cc3ccccc3)cnc2c1)NO [Compound 10h, (E)-3-(3-Benzyl-4-oxo-3,4-dihydroquinazolin-7-yl)-N-hydroxyacrylamide] | – | 1.18 ± 0.015 µM | 1.32 ± 0.025 µM | –
– | CCn1cnc2ccc(/C=C/C(=O)NO)cc2c1=O [Compound 9a, (E)-3-(3-Ethyl-4-oxo-3,4-dihydroquinazolin-6-yl)-N-hydroxyacrylamide] | – | 5.787 ± 0.003 µM | – | fold higher HDAC IC50 than that of SAHA [5]: approximately 10 fold; IC50 [8]: 3.2 to 7.04 µM
– | O=C(/C=C/c1cccc(S(=O)(=O)Nc2ccccc2)c1)NO [Belinostat, belinostat, reference compound] | – | – | 2.53 ± 0.17 µM | –
0.096 ± 0.006 µM | O=C(/C=C/c1ccc2c(=O)n(CCO)cnc2c1)NO [Compound 10c, (E)-N-Hydroxy-3-(3-(2-hydroxyethyl)-4-oxo-3,4-dihydroquinazolin-7-yl)acrylamide] | – | – | 5.05 ± 0.399 µM | –
0.025 ± 0.001 µM | O=C(/C=C/c1ccc2c(=O)n(Cc3ccccc3F)cnc2c1)NO [Compound 10i, (E)-3-(3-(2-Fluorobenzyl)-4-oxo-3,4-dihydroquinazolin-7-yl)-N-hydroxyacrylamide] | – | 2.1 ± 0.132 µM | 1.95 ± 0.066 µM | –
